From patent publication US20090030024A1, “THIAZOLES AS FUNGICIDES” (priority 2005, published 2009) come the findings set out here.

A short description of the data set: logP determination by retention times (calibration with alkan-2-ones). The note with it: mobile phase 0.1% aqueous formic acid and acetonitrile, linear gradient 10% to 95% acetonitrile.
Where [1] appears, read: * HPLC reversed-phase C18, 40° C.
The mark [2] stands for this setting: values marked *: HPLC on reversed-phase C 18, 40° C.

For `CN(C)c1nc(C(F)(F)F)c(-c2ccnc(Nc3ccc4c(c3)OC(F)(F)C(F)(F)O4)n2)s1` [Example 780, 4-[2-(dimethylamine)-4-(trifluoromethyl)-1,3-thiazol-5-yl]-N-(2,2,3,3-tetrafluoro-2,3-dihydro-1,4-benzodioxin-6-yl)pyrimidine-2-amine], under setting [1], the logP is recorded as 5.28*.

What is called chromatographic logP is a lipophilicity value derived from retention on a column. Low readings indicate a more hydrophilic compound, high ones a more lipophilic compound. Under setting [1], `COCCNc1nc(C)c(-c2ccnc(Nc3cccc([N+](=O)[O-])c3)n2)s1` [Example 781, 4-{2-[(2-methoxyethyl)amino]-4-methyl-1,3-thiazol-5-yl}-N-(3-nitrophenyl)pyrimidine-2-amine] came in with a chromatographic logP of 1.97. As for `Cc1nc(N(C)C)sc1-c1ccnc(Nc2cccc(N3CCCC3=O)c2)n1` [Example 782, 1-[3-({4-[2-(dimethylamine)-4-methyl-1,3-thiazol-5-yl]pyrimidin-2-yl}amino)phenyl]pyrrolidin-2-one], the logP under setting [1] is on record as 1.65*. The same measure, in the same setting: to `COc1ccc(Nc2nccc(-c3sc(N(C)C)nc3C(F)(F)F)n2)cn1` [Example 783, 4-[2-(dimethylamine)-4-(trifluoromethyl)-1,3-thiazol-5-yl]-N-(6-methoxypyridin-3-yl)pyrimidine-2-amine] belongs 3.17*. Consider `COCCNc1nc(C)c(-c2ccnc(Nc3ccc(OC)nc3)n2)s1` [Example 784, 4-{2-[(2-methoxyethyl)amino]-4-methyl-1,3-thiazol-5-yl}-N-(6-methoxypyridin-3-yl)pyrimidine-2-amine], for which, under setting [1], the chromatographic logP is 1.45. With `COc1ccc(Nc2nccc(-c3sc(N(C)C)nc3C)n2)cn1` [Example 785, 4-[2-(dimethylamine)-4-methyl-1,3-thiazol-5-yl]-N-(6-methoxypyridin-3-yl)pyrimidine-2-amine], under setting [1], the logP is on record as 1.55*. `COc1cc(Nc2nccc(-c3cnc(-c4ccccc4)s3)n2)cc(OC)c1OC` [Example 786, 4-(2-phenyl-1,3-thiazol-5-yl)-N-(3,4,5-trimethoxyphenyl)pyrimidine-2-amine]: the chromatographic logP under setting [1] came out at 3.37.

`c1ccc(Nc2nccc(-c3cnc(-c4ccccc4)s3)n2)cc1` [Example 787, N-phenyl-4-(2-phenyl-1,3-thiazol-5-yl)pyrimidine-2-amine]: the chromatographic logP under setting [1] came to 3.97. On the same count and under the same terms, to `COc1ccc(Nc2nccc(-c3sc(C)nc3C)n2)cc1` [Example 788, 4-(2,4-dimethyl-1,3-thiazol-5-yl)-N-(4-methoxyphenyl)pyrimidine-2-amine] belongs 2.34; to `CCc1nc(C)c(-c2ccnc(Nc3ccc(OC)cc3)n2)s1` [Example 789, 4-(2-ethyl-4-methyl-1,3-thiazol-5-yl)-N-(4-methoxyphenyl)pyrimidine-2-amine], 2.78.

Turning to `COc1ccc(Nc2nccc(-c3sc(C)nc3C)n2)cc1O` [Example 790, 5-{[4-(2,4-dimethyl-1,3-thiazol-5-yl)pyrimidin-2-yl]amino}-2-methoxyphenol], under setting [1], the chromatographic logP came out at 1.79. With `CCc1nc(C)c(-c2ccnc(Nc3ccc(OC)c(O)c3)n2)s1` [Example 791, 5-{[4-(2-ethyl-4-methyl-1,3-thiazol-5-yl)pyrimidin-2-yl]amino}-2-methoxyphenol], under setting [1], the chromatographic logP came to 2.09. The same measure, in the same setting: to `COc1cc(Nc2nccc(-c3cnc(-c4ccc(Cl)cc4)s3)n2)cc(OC)c1OC` [Example 792, 4-[2-(4-chlorophenyl)-1,3-thiazol-5-yl]-N-(3,4,5-trimethoxyphenyl)pyrimidine-2-amine] belongs 4.12; to `Clc1ccc(-c2ncc(-c3ccnc(Nc4ccccc4)n3)s2)cc1` [Example 793, 4-[2-(4-chlorophenyl)-1,3-thiazol-5-yl]-N-phenylpyrimidine-2-amine], 4.85; to `CCc1nc(C)c(-c2ccnc(Nc3ccc(Cl)cc3Cl)n2)s1` [Example 794, N-(2,4-dichlorophenyl)-4-(2-ethyl-4-methyl-1,3-thiazol-5-yl)pyrimidine-2-amine], 4.9. Same read-out and setting: the figure for `Clc1ccc(-c2ncc(-c3ccnc(Nc4cccc(Cl)c4)n3)s2)cc1` [Example 795, N-(3-chlorophenyl)-4-[2-(4-chlorophenyl)-1,3-thiazol-5-yl]pyrimidine-2-amine] is 5.57; for `CCOC(=O)Nc1ccc(Nc2nccc(-c3sc(C(C)C)nc3C)n2)cc1` [Example 796, ethyl-(4-{[4-(2-isopropyl-4-methyl-1,3-thiazol-5-yl)pyrimidin-2-yl]amino}phenyl)carbamate] it is 2.18.

As for `COCCNc1nc(C)c(-c2ccnc(Nc3ccc(OC)c(OC)c3)n2)s1` [Example 800, N-(3,4-dimethoxyphenyl)-4-{2-[(2-methoxyethyl)amino]-4-methyl-1,3-thiazol-5-yl}pyrimidine-2-amine], under setting [1], the chromatographic logP came out at 1.55. On the same count and under the same terms, to `COCCNc1nc(C)c(-c2ccnc(Nc3cc(OC)cc(OC)c3)n2)s1` [Example 801, N-(3,5-dimethoxyphenyl)-4-{2-[(2-methoxyethyl)amino]-4-methyl-1,3-thiazol-5-yl}pyrimidine-2-amine] belongs 1.96; to `COCCNc1nc(C)c(-c2ccnc(Nc3ccc4c(c3)OCO4)n2)s1` [Example 802, N-1,3-benzodioxol-5-yl-4-{2-[(2-methoxyethyl)amino]-4-methyl-1,3-thiazol-5-yl}pyrimidine-2-amine], 1.65; to `COCCNc1nc(C)c(-c2ccnc(Nc3ccc4c(c3)OCCO4)n2)s1` [Example 803, N-(2,3-dihydro-1,4-benzodioxin-6-yl)-4-{2-[(2-methoxyethyl)amino]-4-methyl-1,3-thiazol-5-yl}pyrimidine-2-amine], 1.63. Under setting [1], `COCCNc1nc(C)c(-c2ccnc(Nc3ccc(OC)c(Cl)c3)n2)s1` [Example 804, N-(3-chloro-4-methoxyphenyl)-4-{2-[(2-methoxyethyl)amino]-4-methyl-1,3-thiazol-5-yl}pyrimidine-2-amine] showed a chromatographic logP of 1.96.

In the case of `COCCNc1nc(C)c(-c2ccnc(Nc3ccc(N(C)C)c(Cl)c3)n2)s1` [Example 805, 2-chloro-N4-(4-{2-[(2-methoxyethyl)amino]-4-methyl-1,3-thiazol-5-yl}pyrimidin-2-yl)-N1,N1-dimethylbenzene-1,4-diamine], the chromatographic logP under setting [1] came to 1.57. The molecule `COCCNc1nc(C)c(-c2ccnc(Nc3ccc(C)c([N+](=O)[O-])c3)n2)s1` [Example 806, 4-{2-[(2-methoxyethyl)amino]-4-methyl-1,3-thiazol-5-yl}-N-(4-methyl-3-nitrophenyl)pyrimidine-2-amine] had a chromatographic logP under setting [1] of 2.17. As for `COCCNc1nc(C)c(-c2ccnc(Nc3ccc(C#N)cc3)n2)s1` [Example 807, 4-[(4-{2-[(2-methoxyethyl)amino]-4-methyl-1,3-thiazol-5-yl}pyrimidin-2-yl)amino]benzonitrile], the chromatographic logP under setting [1] is 1.9. Under setting [2], `COCCNc1nc(C)c(-c2ccnc(Nc3ccc(O)cc3)n2)s1` [Example 808, 4-[(4-{2-[(2-methoxyethyl)amino]-4-methyl-1,3-thiazol-5-yl}pyrimidin-2-yl)amino]phenol] gave a chromatographic logP of 1.22.

Turning to `Cc1nc(NCC2CCCO2)sc1-c1ccnc(Nc2ccc(F)cc2F)n1` (stereo not drawn) [Example 809, N-(2,4-difluorophenyl)-4-{4-methyl-2-[(tetrahydrofuran-2-ylmethyl)amino]-1,3-thiazol-5-yl}pyrimidine-2-amine], the chromatographic logP under setting [2] was 2.09.
